{"source": "patent US5705649A", "about": "“Protein staining compositions and methods” (Promega Corporation, priority 1995, dated 1998)", "key": {"[1]": {"test_system": "Promega Mid Range Molecular Weight Standards", "experiment": "Detection of fractionated protein in SDS-PAGE gels using dansyl derivatives made in acetone", "conditions": "for lowest protein per band visible: 2% (v/v) eluate in 10% methanol", "procedure": "Several 15-well, SDS-PAGE minigels were poured as described in Example 27 and loaded with Promega Mid Range Molecular Weight Standards diluted as described in Example 27 to provide samples containing 1000, 300, 100, 50, 25, 12.5, and 6.25ng of each protein per band in separate lanes of the gel. The samples were fractionated by application of 20 mA per gel until the tracking dye reached the bottom of the gel. All the gels were placed in 10% trichloroacetic acid for 5 min and then incubated for 10 min in 10% (v/v) methanol. The gels were then incubated in a 10% methanol solution containing 2% (v/v) of the derivative eluates (dissolved in 50 ml ethanol) described in Example 28. The gels were transferred to a transilluminator and both visualized and photographed after two hours of staining. The following observations were made. Only the lanes containing 1000 and 300ng of protein per band were visible in the gel incubated with the n-butyl dansyl derivative. The lanes containing the 1000, 300, 100, 50, 25ng per band were visible in the gel incubated with the n-hexyl derivative as were some of the bands in the 12.5 ng per band lane.\nAfter overnight incubation in the stain solutions, the gels were re-observed and rephotographed.\nThe gels were then placed in 1% acetic acid to remove any unbound stain and rephotographed after three hours of incubation in this solution at room temperature."}, "[2]": {"experiment": "Spectral analyses of Coomassie Blue R and Promega Green 1, 2, 3", "format": "physicochemical", "procedure": "The three solutions of Promega Green 1, 2, and 3, from examples 1, 2 and 3 respectively, were diluted approximately 500 fold into a 1:1 solution of methanol:water. The spectra of the resulting solutions and of a 12 μg/ml solution of Coomassie Blue R (in 1:1 methanol:water) were recorded from 700 to 340 nm versus 1:1 methanol:water. […] All of the derivatives gave essentially identical spectra; however, the maximal absorbance of the diluted Promega Green i was about twice that seen for the other derivatives. The derivatives had two peak absorptions in the region of the spectrum scanned, a major peak at around 630 nm and a second peak at around 440 nm. The following absorbances were recorded at the peaks near 630 nm for the three Promega Green dye solutions (diluted 1:500 in 1:1 methanol:water): […]"}, "[3]": {"test_system": "Promega Mid-Range Molecular Weight Markers", "experiment": "Detection of proteins during SDS-PAGE electrophoresis (dye in cathode buffer)", "conditions": "10% SDS-PAGE, dye in cathode buffer, white plastic card behind gel", "source_text": "Solutions for the formation and electrophoresis of proteins were made according to the instructions given in Experiments in Gene Fusions, Silhavy, Berman, Enquist, Cold Spring Harbor Laboratory Press, Cold Spring Harbor, N.Y. with the following changes:\na) The SDS concentration in the upper and lower gel buffer components were reduced to result in a 0.05% final SDS concentration in the gel. Thus, the composition of 4× upper gel buffer was 0.5M Tris-HCl, pH 6.8, 0.2 % (w/v) sodium dodecylsulfate (SDS) and the composition of 4× lower gel buffer was 1.5M Tris-HCl, pHS.8, 0.2 % (w/v) SDS.\nb) The SDS concentration in the electrophoretic (electrode) buffer was reduced to 0.04% final concentration. Thus, 4× electrode (anode or cathode) buffer was made by dissolving 60 g Tris base, 288 g glycine, and 8 g SDS dissolved in water and then diluting with water to 5 liters. Another name sometimes used for \"electrode\" buffer is \"running\" buffer.\nc) The SDS concentration in the 2× sample buffer was reduced to 1% final SDS concentration. Thus, 2× sample buffer was made by mixing 0.5 ml of betamercaptoethanol, 0.25 ml of 0.1% (w/v) bromophenol blue, 1 ml of 10 % (w/v) SDS, 3 ml of water, and 5.3 ml of 2× glycerol buffer. 2× glycerol buffer is made by mixing 12.5 ml of 4× upper gel buffer and 20 ml of glycerol and diluting the resulting solution to 60 ml with water. Another name sometimes used for \"sample\" buffer is \"loading\" buffer.\nd) Electrophoresis was performed using a BIO-RAD miniprotein II electrophoresis apparatus and gels were poured such that i cm of space was present between the bottom of the loading wells and the separating gel.\nIn other electrophoresis experiments reported in this application, the buffers used were as described above in this example. In some cases, as in this example, where preparation of a solution of dye in 150 ml of cathode (or electrode) buffer is specified, an amount of stock solution of a dye was first added to 150 ml of cathode buffer and then 125 ml of the resulting solution was used to fill the cathode buffer chamber (which holds 125 ml) in the electrophoresis apparatus. In other cases, where addition of stock solution of dye to the cathode buffer is specified without reference to the volume of cathode buffer or with reference to such volume being \"125 ml,\" the stock solution was added directly to 125 ml of cathode buffer already in the cathode buffer chamber.\nThe samples used were prepared with Promega Mid-Range Molecular Weight Markers solution (Promega Corp., Madison, Wis., USA, Catalog No. V5231) (referred to hereinafter as \"Promega Mid-Range [Molecular Weight] Markers or Standards\") diluted into Sample Buffer. […]"}, "[4]": {"test_system": "Promega Mid-Range Molecular Weight Markers", "experiment": "Enhancement of staining of proteins in SDS-PAGE gels in 5% acetic acid", "conditions": "5% acetic acid", "procedure": "The gels described above were placed in 5% acetic acid following the termination of the electrophoretic separation. Within one to two minutes the gel developed a light green background but the protein bands dramatically darkened to a green color. […] Again, the color of the background darkened to a greater degree when greater concentrations of dye were used.\nThe gels above (from Example 7) were placed in 5% acetic acid following termination of the electrophoretic separation. Within 1-2 minutes, all the gels turned light green and the color of the stained bands intensified such that all proteins were visible--even in the lane containing 0.25 μg protein/band.\nThe gels above (Example 9) were placed in 5% acetic acid following termination of the electrophoretic separation. Within 1-2 minutes, all the gels turned light green and the color of the stained bands intensified such that all proteins were visible--even in the lanes containing 0.25 μg protein/band."}, "[5]": {"test_system": "Promega Mid Range Molecular Weight Standards", "experiment": "Post-electrophoretic detection of protein with purified dansyl derivatives", "procedure": "Samples of the eluates from purification of the derivatives were diluted 20-fold with ethanol and the absorption of the resulting solutions from 400 to 220 nm was measured. The absorption of the solutions at 328 nm was used as an indication of the concentration of the derivative in the staining studies in Example 27.\nSeveral SDS-PAGE minigels were made as described in Experiments with Gene Fusions, Silhavy, Berman, Enquist, supra, using the SDS concentrations described by the authors. Samples of Promega Mid Range Molecular Weight Standards were diluted into the loading solution described in the reference above to produce solutions containing 200, 100, 50, 25, and 12.5 ng of each protein species in 10 μl of solution. These solutions were loaded onto the gels and the samples were fractionated in the gels by application of 10 mA per gel until the tracking dye for the samples reached the bottom of the gel. The gels were then rinsed 1 min in distilled water, 15 min in 10% trichloracetic acid (w/v), and then for 15 min in 10% methanol (v/v). The gel segments, approximately 5×6 cm containing the fractionated standard, were then transferred to a 2% ethanol solution (50 ml) containing 0.05 OD328 -equivalent of each of the dansyl derivatives (see Example 26).\nThe gel segments were returned to their respective staining solutions and were incubated overnight. The following morning, all of the gel segments were again visualized on the transilluminator and photographed as described above. […] In general, relatively equivalent staining of bands was obtained as determined by the strength of the fluorescent signal observed for the various fractionated species."}, "[6]": {"test_system": "Promega Mid Range Molecular Weight standard", "experiment": "Post-electrophoretic staining with fluorescein isothiocyanate derivatives", "conditions": "for lowest protein per band stained: after overnight in 10% methanol; for lowest protein per band with visible bands / standards detected: 1:500 in 10% methanol, 1 hour, destained 30 min", "procedure": "Six 12% gels were made as described in Example 27 and were loaded with diluted Promega Mid Range Molecular Weight standard to produce lanes containing, per band, 1000, 500, 200, 100, 75, 50, 25 and 10 ng of protein. The gel was run as described in Example 27 and then the gels were incubated 15 min in 50% methanol. The gels were then transferred to individual 50 ml staining solutions, which were stock derivatized dye solutions of Example 36 diluted 1:500 with 10% methanol. After one hour, these solutions were removed and destaining with 50 ml of 10% methanol was performed. After an additional 30 min. the gels were visualized on a transilluminator and photographed. Protein bands were visible for the gels stained with amino fluorescein and p-amino benzoic acid fluorescein derivatives, however the bands were seen only in the lanes containing 1000, 500, and 200 ng of protein per band. […] At this point, the gel stained with the ethyl p-amino benzoyl derivative allowed detection of all of the proteins in the lanes containing as little as 75 ng of protein per band.\nThe gels were then placed in 50 ml of 10% methanol and allowed to incubate overnight at room temperature. After overnight incubation, the gels were visualized on a transilluminator and photographed. […] The gel stained with the amino derivative (reaction 5) had faded to the point where protein species were only detected in the 1000 and 500 ng protein per band lanes. However, in these lanes, only particular protein species were stained, as described above."}}}
{"smiles": "CCOC(=O)c1ccc(NS(=O)(=O)c2cccc3c(N(C)C)cccc23)cc1", "values": [{"measurement": "lowest protein per band visible", "setting": "[1]; two hours of staining", "value": 25, "unit": "ng"}]}
{"smiles": "CCOc1ccc(Nc2ccc(C(=C3C=CC(=[N+](CC)Cc4cccc(S(=O)(=O)[O-])c4)C=C3)c3ccc(N(CC)Cc4cccc(S(=O)(=O)O)c4)cc3)cc2)cc1", "note": "[Coomassie Blue R, reference compound]", "values": [{"measurement": "maximal absorbance wavelength (major peak)", "setting": "[2]; 1:1 methanol:water, 700 to 340 nm", "value": "around 590 nm"}]}
{"smiles": "CCOc1ccc(N(C(C)=O)c2ccc(C(=C3C=CC(=[N+](CC)Cc4cccc(S(=O)(=O)[O-])c4)C=C3)c3ccc(N(CC)Cc4cccc(S(=O)(=O)O)c4)cc3)cc2)cc1", "note": "[Promega Green 2]", "values": [{"measurement": "lowest protein amount per band visible while the gel was running", "setting": "[3]", "value": 1.0, "unit": "µg"}, {"measurement": "Absorbance at the peak near 630 nm", "setting": "[2]; diluted 1:500 in 1:1 methanol:water", "value": 1.37}, {"measurement": "lowest protein amount per band visible after enhancement", "setting": "[4]; 1-2 minutes", "value": 0.25, "unit": "µg"}, {"measurement": "staining after overnight incubation", "setting": "[4]; overnight", "value": "slightly faded"}]}
{"smiles": "CN(C)c1cccc2c(S(N)(=O)=O)cccc12", "note": "[control dansyl amine, reference compound]", "values": [{"measurement": "visibility of protein bands", "setting": "[5]; overnight staining", "value": "no bands were seen"}]}
{"smiles": "CCCCCCCCCCNS(=O)(=O)c1cccc2c(N(C)C)cccc12", "note": "[decyl derivative]", "values": [{"measurement": "lowest protein per band visible", "setting": "[1]; two hours of staining", "value": 25, "unit": "ng"}, {"measurement": "protein per band at which most of the protein species were visible", "setting": "[1]; after 1% acetic acid, three hours", "value": 6.25, "unit": "ng"}, {"measurement": "protein per band at which at least some of the bands could be visualized", "setting": "[1]; overnight staining", "value": 12.5, "unit": "ng"}]}
{"smiles": "O=C(O)c1cc(NC(=S)Nc2ccc(NC(=S)Nc3ccc(-c4c5ccc(=O)cc-5oc5cc(O)ccc45)c(C(=O)O)c3)cc2)ccc1-c1c2ccc(=O)cc-2oc2cc(O)ccc12", "note": "[difluorescein phenylenediamine]", "values": [{"measurement": "lowest protein per band stained", "setting": "[6]", "value": 200, "unit": "ng"}]}
{"smiles": "CCOC(=O)c1ccc(NC(=S)Nc2ccc(-c3c4ccc(=O)cc-4oc4cc(O)ccc34)c(C(=O)O)c2)cc1", "note": "[ethyl p-amino benzoic acid fluorescein]", "values": [{"measurement": "lowest protein per band with visible bands", "setting": "[6]", "value": 75, "unit": "ng"}, {"measurement": "lowest protein per band stained", "setting": "[6]", "value": 200, "unit": "ng"}]}
{"smiles": "CCCCNS(=O)(=O)c1cccc2c(N(C)C)cccc12", "note": "[n-butyl dansyl derivative]", "values": [{"measurement": "lowest protein per band visible", "setting": "[1]; two hours of staining", "value": 300, "unit": "ng"}]}
{"smiles": "CCCCCCNS(=O)(=O)c1cccc2c(N(C)C)cccc12", "note": "[n-hexyl derivative]", "values": [{"measurement": "lowest protein per band visible", "setting": "[1]; two hours of staining", "value": 25, "unit": "ng"}, {"measurement": "protein per band at which some of the bands were visible", "setting": "[1]; two hours of staining", "value": 12.5, "unit": "ng"}]}
{"smiles": "CCCCCCCCNS(=O)(=O)c1cccc2c(N(C)C)cccc12", "note": "[octyl dansyl derivative]", "values": [{"measurement": "staining quality compared to the amino or butyl derivatives", "setting": "[5]", "value": "much better stains compared to the amino or butyl derivatives"}, {"measurement": "visibility of protein bands", "setting": "[5]; 15 min staining, 0.05 OD328-equivalent in 2% ethanol, 200-12.5 ng per band", "value": "easily visualized in the photograph of the gel"}, {"measurement": "change in staining of bovine serum albumin and ovalbumin", "setting": "[5]; overnight staining", "value": "somewhat fainter after the overnight incubation"}, {"measurement": "visibility of protein bands", "setting": "[5]; overnight staining", "value": "easily visible"}, {"measurement": "staining result relative to n-hexyl derivative", "setting": "[1]; two hours of staining", "value": "Essentially equivalent results, but with lower fluorescence intensities"}]}
{"smiles": "O=C(O)c1ccc(NC(=S)Nc2ccc(-c3c4ccc(=O)cc-4oc4cc(O)ccc34)c(C(=O)O)c2)cc1", "note": "[p-amino benzoic acid fluorescein]", "values": [{"measurement": "lowest protein per band with visible bands", "setting": "[6]", "value": 200, "unit": "ng"}, {"measurement": "standards detected", "setting": "[6]", "value": "97, 55, 40 and 31 kDa"}, {"measurement": "lowest protein per band stained", "setting": "[6]", "value": 200, "unit": "ng"}]}
{"smiles": "NC(=S)Nc1ccc(-c2c3ccc(=O)cc-3oc3cc(O)ccc23)c(C(=O)O)c1", "note": "[reference compound]", "values": [{"measurement": "lowest protein per band with visible bands", "setting": "[6]", "value": 200, "unit": "ng"}, {"measurement": "standards detected", "setting": "[6]", "value": "97, 66, 55 and 40 kDa"}, {"measurement": "lowest protein per band stained", "setting": "[6]", "value": 500, "unit": "ng"}]}
